Experimental data as given in patent US20100311726A1, “REDUCTION OF BETA-AMYLOID LEVELS BY TREATMENT WITH THE SMALL MOLECULE DIFFERENTIATION-INDUCING FACTOR” (priority 2007, published 2010).

Key:
human APLP2 = assay: APLP2 CTF levels in CHO cells expressing APLP2; type: cell-based; details: co-treatment of DIF-1 and DAPT
Excerpt: To ascertain if DIF-1 indiscriminately perturbs the metabolism of type I transmembrane proteins we investigated the processing of other γ-secretase substrates.

secreted APP and Aβ = assay: Secreted APP and total Aβ in conditioned media by western blot; type: cell-based, human; details: CHO-7W, 30 μM, antibody 6E10
Procedure: The levels of secreted Aβ from CHO-7W cells stably overexpressing APP^751 and CHO-CAB cells that overexpress APP^751 and human BACE1 was quantified by ELISA and viewed by western blot using the monoclonal anti-APP antibody (6E10) that recognizes residues 1-17 of Aβ. Cells (5×10^5) were deposited into 6-well tissue culture dishes in triplicate and allowed to settle and grow for 24 hours. At this time, the media was aspirated and the cells were washed 2× in warm PBS. Fresh media (2 mL) and media supplemented with vehicle or DIF-1 was added to each well. […] Since DIF-1 exerts a cytostatic effect, the cell number was counted for all treatments upon removal of the conditioned media and used to normalize the levels of Aβ. […] The concentration of Aβ40 and Aβ42 was subsequently detected in triplicate using the β-Amyloid 1-40 or 1-42 Colorimetric ELISA kit (Biosource International, Inc.) according to the manufacturer's instructions.
We then looked at what effect this had on the levels of secreted soluble APP and Aβ production. […] The conditioned media was analyzed using anti-APP antibody 6E10 in order to detect total βP levels and sαAPP levels since it recognizes the amino acids 1-17 of Aβ and thus cannot detect sβAPP. […] The blots were analyzed using a phosphorimager.

APPT668A and APPT668E = assay: APP processing in CHO cells expressing APP T668A or T668E; type: cell-based, human; details: 30 μM
Excerpt: To assess whether or not the decrease in phosphorylated APP seen in DIF-1 treated cells contributed mechanistically to the reduction of maturation, secretion and metabolic processing of APP^751, mutants were generated using APP^751 in which T724 (APP^751 numbering) was mutated to either an alanine residue such that phosphorylation could not occur, or a glutamic acid residue that should mimic constitutive phosphorylation of APP. APP^751, Isoform B, NM_201413 was used as a template. We essentially used Stratagene's QuickChange® Site-Directed Mutagenesis Kit (Catalog #200518) to create the desired mutations as recommended by the manufacturer with the following exceptions. The APP^751 codon for threonine 724 (ACC) was mutated to code for Alanine (A) (GCC) and Glutamic Acid (E) (GAA), respectively. The following mutagenesis primers were used to create each mutation. […]
Cells were diluted and plated in multiple 10 cm tissue culture dishes and allowed to recover overnight in Dulbecco's modified Eagle's medium containing 4.5 mg/ml D-glucose supplemented with 10% fetal bovine serum and 100 units/ml penicillin, 100 μg/ml streptomycin, 2 mM L-glutamine (Sigma) at 37° C. in a 5% CO2 atmosphere. […] Protein extracts were assessed for APPT724A and APPT724E expression levels compared to naïve cells by western blot using polyclonal anti-APP C-terminal antibodies (C66). […]

Q: Which “APLP2 CTF levels” value (human APLP2) does the source give for CCCCCC(=O)c1c(O)c(Cl)c(OC)c(Cl)c1O [DIF-1, 1-[3,5-dichloro-2,6-dihydroxy-4-methoxyphenyl]-1-hexanone] here?
A: Its value is “decrease in APLP2 CTF levels”.

Q: And the “level of total Aβ in conditioned media by western blot” value (secreted APP and Aβ)?
A: Its value is “reduced the level of total Aβ”.

Q: What about the “level of total secreted APP in conditioned media” value (secreted APP and Aβ) of the same compound?
A: The value was “reduced the level of total secreted APP”.

Q: And the “effect of DIF-1 on APP maturation and CTFs in T668A or T668E mutant APP” value (APPT668A and APPT668E)?
A: Its value is “completely abolished the effect of DIF-1 on APP maturation and the reduction of both αCTF and βCTF levels”.
